Converted amounts (≈) assume the structure as drawn.
Legend:
[1] = target: T1, PBP3 from Acinetobacter baumannii (ATCC 19606) (Acinetobacter baumannii, UniProt A0ABX6CK25); assay: Bocillin-FL fluorescence polarization competition binding, A. baumannii PBP3; settings: fluorescence polarization competition binding assay using Bocillin-FL; read-out: A. baumannii PBP3 Potency
T1 sequence (A0ABX6CK25 64-610): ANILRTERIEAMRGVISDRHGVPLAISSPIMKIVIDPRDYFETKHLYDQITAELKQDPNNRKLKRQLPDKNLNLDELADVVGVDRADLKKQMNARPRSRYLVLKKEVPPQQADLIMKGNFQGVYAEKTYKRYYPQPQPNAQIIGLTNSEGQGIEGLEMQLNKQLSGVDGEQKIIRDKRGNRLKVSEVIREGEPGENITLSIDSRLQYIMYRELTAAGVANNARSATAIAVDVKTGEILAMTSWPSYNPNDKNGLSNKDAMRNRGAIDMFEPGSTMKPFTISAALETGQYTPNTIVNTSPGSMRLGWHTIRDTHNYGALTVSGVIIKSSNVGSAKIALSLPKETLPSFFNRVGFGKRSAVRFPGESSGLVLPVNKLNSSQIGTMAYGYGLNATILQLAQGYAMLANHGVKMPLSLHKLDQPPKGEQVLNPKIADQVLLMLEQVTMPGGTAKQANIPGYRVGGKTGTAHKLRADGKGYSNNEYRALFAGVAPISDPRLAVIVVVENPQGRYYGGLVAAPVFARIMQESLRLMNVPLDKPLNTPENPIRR
Excerpt: To determine the ability of boronic acid-based test PBP inhibitors to bind Penicillin Binding Proteins (PBPs), Bocillin-FL (fluorescently-labeled penicillin V; ThermoFisher Scientific) was used in a fluorescence polarization (FP) competition binding assay to assess inhibitor binding to PBP3 from Escherichia coli (K-12), PBP3 from Pseudomonas aeruginosa (PAO1), PBP1a and PBP3 from Acinetobacter baumannii (ATCC 19606), and PBP2 from Neisseria gonorrhoeae (FA19). PBPs were cloned and purified as described previously (E. coli PBP3, King, D. T, et al., ACS Infectious Diseases 2015, 1, 175-184; P. aeruginosa PBP3, Han et. al., PNAS 2010, 107 (51), 22002-22007; A. baumannii PBPs, Penwell et. al., Antimicrob. Agents Chemother. 2015, 59 (3), 1680-1689; N. gonorrhoeae PBP2, Singh et. al., J. Biol. Chem. 2019, 294 (38), 14020-14032). To establish assay conditions for competition binding, enzyme titration/saturation binding experiments were initially performed. Bocillin-FL was prepared at 0.2 μM in a buffer comprised of 50 mM Hepes (pH 8.0), 300 mM NaCl and 10% (v/v) glycerol for reactions with E. coli, P. aeruginosa and N. gonorrhoeae PBPs, and 25 mM Tris (pH 8.0), 200 mM NaCl, 10% (v/v) glycerol and 0.005% (v/v) Tween 20 for reactions with A. baumannii PBPs. Saturation binding was performed by mixing 40 μl of PBP solutions ranging in concentrations from 0-24 μM with 40 μl of the 0.2 μM Bocillin-FL solution, in individual wells of a black 384-well microplate. FP was measured immediately upon mixing (Excitation, 490 nm; Emission, 520 nm; g-factor, 0.96), using a Cytation3 (BioTek) microplate reader and measured continuously for up to 120 minutes. The FP response stabilized after 15 minutes for P. aeruginosa and A. baumannii PBP3, 30 minutes for E. coli PBP3 and A. baumannii PBP1a, and less than 1 minute for N. gonorrhoeae PBP2. […] The competition binding assay (80 μl final volume) was validated using beta-lactams and PBPs at final concentrations of: 1.5 μM for E. coli PBP3; 0.75 μM for P. aeruginosa PBP3; 1 μM for A. baumannii PBP1a; 0.2 μM for A. baumannii PBP3; and 0.25 μM for N. gonorrhoeae PBP2. Bocillin-FL was at 0.1 μM (0.05 μM with A. baumannii PBP1a) and beta-lactam concentrations ranged from 0-1,000 μM. E. coli PBP3 was incubated with increasing concentrations of ampicillin in a black 384-well microplate (Corning) for 30 minutes. P. aeruginosa PBP3 was incubated for 15 minutes with aztreonam, whereas A. baumannii PBP1a and PBP3 were incubated for 15 minutes with meropenem, and then Bocillin-FL was added followed immediately by the FP measurement for up to 60 minutes. […] The beta-lactam potency was reported as the concentration of beta-lactam required to reduce the amount of PBP bound-Bocillin-FL by 50% (EC50). […] The EC50 of aztreonam was determined to be <0.5 μM for P. aeruginosa PBP3. […] Binding assays for boronic acid PBP inhibitors were performed in an identical fashion for the respective PBPs.

P. aeruginosa ATCC 27853 = assay: microbe, parasite or virus in culture; assay type: cell-based; settings: Pseudomonas aeruginosa, ATCC27853, read-out: Minimum inhibitory concentration, P. aeruginosa ATCC 27853
A. baumannii 1258916 = assay: microbe, parasite or virus in culture; assay type: cell-based, Acinetobacter baumannii; settings: Acinetobacter baumannii, 1258916, read-out: MIC, A. baumannii 1258916

Question: Which IC50 [1] does the source give for `CC(=O)NC(C(=O)N[C@H]1Cc2cccc(C(=O)O)c2OB1O)c1ccc(P(=O)(O)O)cc1` (stereo partly drawn) [Example 26, (3R)-3-(2-acetamido-2-(4-phosphonophenyl)acetamido)-2-hydroxy-3,4-dihydro-2H-benzo[e][1,2]oxaborinine-8-carboxylic acid] here?
Answer: < 10 µM

Question: For `NC(C(=O)N[C@H]1Cc2ccc(F)c(C(=O)O)c2OB1O)c1ccc(P(=O)(O)O)cc1` (stereo partly drawn) [Example 14, (3R)-3-(2-amino-2-(4-phosphonophenyl)acetamido)-7-fluoro-2-hydroxy-3,4-dihydro-2H-benzo[e][1,2]oxaborinine-8-carboxylic acid], which IC50 [1] is on record?
Answer: > 250 µM

Question: With `CS(=O)(=O)N1CCN(C(=O)N[C@@H](C(=O)N[C@H]2Cc3cccc(C(=O)O)c3OB2O)c2cc(F)c(P(=O)(O)O)c(F)c2)C1=O` (single isomer, unassigned) [Example 18] as the molecule, how does the IC50 [1] read?
Answer: < 10 µM

Question: For `O=C(N[C@@H](C(=O)N[C@H]1Cc2cccc(C(=O)O)c2OB1O)c1ccc(P(=O)(O)O)cc1)c1ccc(O)c(O)c1Cl` [Example 49, (R)-3-((R)-2-(2-chloro-3,4-dihydroxybenzamido)-2-(4-phosphonophenyl)acetamido)-2-hydroxy-3,4-dihydro-2H-benzo[e][1,2]oxaborinine-8-carboxylic acid], which IC50 [1] is on record?
Answer: < 10 µM

Question: And the MIC (P. aeruginosa ATCC 27853)?
Answer: 2 to 4 µg/mL (≈ 3.39 to 6.77 µM)

Question: And the MIC (A. baumannii 1258916)?
Answer: > 128 µg/mL

Question: `CCN1CCN(C(=O)NC(C(=O)N[C@H]2Cc3cccc(C(=O)O)c3OB2O)c2ccc(P(=O)(O)O)c(O)c2)C(=O)C1=O` (stereo partly drawn) [Example 21, (3R)-3-(2-(4-ethyl-2,3-dioxopiperazine-1-carboxamido)-2-(3-hydroxy-4-phosphonophenyl)acetamido)-2-hydroxy-3,4-dihydro-2H-benzo[e][1,2]oxaborinine-8-carboxylic acid] was tested. Which IC50 [1] did it give?
Answer: < 10 µM

Question: Which IC50 [1] does the source give for `CS(=O)(=O)N1CCN(C(=O)NC(C(=O)N[C@H]2Cc3cccc(C(=O)O)c3OB2O)c2ccc(P(=O)(O)O)c(F)c2O)C1=O` (stereo partly drawn) [Example 48, (3R)-3-(2-(3-fluoro-2-hydroxy-4-phosphonophenyl)-2-(3-(methylsulfonyl)-2-oxoimidazolidine-1-carboxamido)acetamido)-2-hydroxy-3,4-dihydro-2H-benzo[e][1,2]oxaborinine-8-carboxylic acid] here?
Answer: 50 to 250 µM

Question: Which results are given for `O=C(NCCN1CCN(C(=O)NC(C(=O)N[C@H]2Cc3ccc(F)c(C(=O)O)c3OB2O)c2ccc(P(=O)(O)O)cc2)C(=O)C1=O)c1ccc(O)c(O)c1Cl` (stereo partly drawn) [Example 120, (3R)-3-(2-(4-(2-(2-chloro-3,4-dihydroxybenzamido)ethyl)-2,3-dioxopiperazine-1-carboxamido)-2-(4-phosphonophenyl)acetamido)-7-fluoro-2-hydroxy-3,4-dihydro-2H-benzo[e][1,2]oxaborinine-8-carboxylic acid]?
Answer: IC50 [1]: < 10 µM; MIC (P. aeruginosa ATCC 27853): < 1 µg/mL; MIC (A. baumannii 1258916): < 1 µg/mL

Question: How did the IC50 [1] turn out when `CS(=O)(=O)N1CCN(C(=O)NC(C(=O)N[C@H]2Cc3cccc(C(=O)O)c3OB2O)c2ccc(P(=O)(O)O)c(Cl)c2)C1=O` (stereo partly drawn) [Example 11, (3R)-3-(2-(3-chloro-4-phosphonophenyl)-2-(3-(methylsulfonyl)-2-oxoimidazolidine-1-carboxamido)acetamido)-2-hydroxy-3,4-dihydro-2H-benzo[e][1,2]oxaborinine-8-carboxylic acid] was run?
Answer: < 10 µM

Question: `O=C(O)c1c(F)ccc2c1OB(O)[C@@H](NC(=O)C(NC(=O)N1CCN(Cc3ccc(O)c(O)c3Cl)C(=O)C1=O)c1ccc(P(=O)(O)O)cc1)C2` (stereo partly drawn) [Example 8, (3R)-3-(2-(4-(2-chloro-3,4-dihydroxybenzyl)-2,3-dioxopiperazine-1-carboxamido)-2-(4-phosphonophenyl)acetamido)-7-fluoro-2-hydroxy-3,4-dihydro-2H-benzo[e][1,2]oxaborinine-8-carboxylic acid] was tested. Which IC50 [1] did it give?
Answer: < 10 µM

Question: And the MIC (P. aeruginosa ATCC 27853)?
Answer: < 1 µg/mL

Question: And the MIC (A. baumannii 1258916)?
Answer: < 1 µg/mL

Question: For `CS(=O)(=O)N1CCN(C(=O)N[C@@H](C(=O)N[C@H]2Cc3cccc(C(=O)O)c3OB2O)c2ccc(P(=O)(O)O)c(F)c2)C1=O` (single isomer, unassigned) [Example 15], which IC50 [1] is on record?
Answer: < 10 µM

Question: Which IC50 [1] does the source give for `CS(=O)(=O)N1CCN(C(=O)N[C@@H](C(=O)N[C@H]2Cc3ccc(F)c(C(=O)O)c3OB2O)c2ccc(P(=O)(O)O)c(F)c2F)C1=O` [Example 16, (R)-3-((R)-2-(2,3-difluoro-4-phosphonophenyl)-2-(3-(methylsulfonyl)-2-oxoimidazolidine-1-carboxamido)acetamido)-7-fluoro-2-hydroxy-3,4-dihydro-2H-benzo[e][1,2]oxaborinine-8-carboxylic acid] here?
Answer: < 10 µM

Question: Which IC50 [1] does the source give for `CCN1CCN(C(=O)N[C@@H](C(=O)N[C@H]2Cc3ccc(F)c(C(=O)O)c3OB2O)c2ccc(P(=O)(O)O)cc2)C(=O)C1=O` (single isomer, unassigned) [Example 10] here?
Answer: < 10 µM

Question: With `CS(=O)(=O)N1CCN(C(=O)N[C@@H](C(=O)N[C@H]2Cc3cccc(C(=O)O)c3OB2O)c2ccc(P(=O)(O)O)c(F)c2F)C1=O` (single isomer, unassigned) [Example 13] as the molecule, how does the IC50 [1] read?
Answer: < 10 µM

Question: Which results are given for `CS(=O)(=O)N1CCN(C(=O)N[C@@H](C(=O)N[C@H]2Cc3ccc(F)c(C(=O)O)c3OB2O)c2ccc(P(=O)(O)O)c(F)c2)C1=O` (single isomer, unassigned) [Example 19]?
Answer: IC50 [1]: < 10 µM; MIC (P. aeruginosa ATCC 27853): > 128 µg/mL; MIC (A. baumannii 1258916): > 128 µg/mL

Question: How did the IC50 [1] turn out when `CCN1CCN(C(=O)NC(C(=O)N[C@H]2Cc3cccc(C(=O)O)c3OB2O)c2ccc(CP(=O)(O)O)cc2)C(=O)C1=O` (stereo partly drawn) [Example 20, (3R)-3-(2-(4-ethyl-2,3-dioxopiperazine-1-carboxamido)-2-(4-(phosphonomethyl)phenyl)acetamido)-2-hydroxy-3,4-dihydro-2H-benzo[e][1,2]oxaborinine-8-carboxylic acid] was run?
Answer: < 10 µM

Question: How did the IC50 [1] turn out when `N[C@@H](C(=O)N[C@H]1Cc2cccc(C(=O)O)c2OB1O)c1ccc(P(=O)(O)O)cc1` (single isomer, unassigned) [Example 171] was run?
Answer: 50 to 250 µM

Question: `CS(=O)(=O)N1CCN(C(=O)NC(C(=O)N[C@H]2Cc3cccc(C(=O)O)c3OB2O)c2ccc(P(=O)(O)O)c(O)c2)C1=O` (stereo partly drawn) [Example 17, (3R)-2-hydroxy-3-(2-(3-hydroxy-4-phosphonophenyl)-2-(3-(methylsulfonyl)-2-oxoimidazolidine-1-carboxamido)acetamido)-3,4-dihydro-2H-benzo[e][1,2]oxaborinine-8-carboxylic acid] was tested. Which IC50 [1] did it give?
Answer: < 10 µM

Question: `O=C(O)c1c(F)ccc2c1OB(O)[C@@H](NC(=O)C(NC(=O)N1CCN(Cc3ccc(O)c(O)c3Cl)C1=O)c1ccc(P(=O)(O)O)cc1)C2` (stereo partly drawn) [Example 46, (3R)-3-(2-(3-(2-chloro-3,4-dihydroxybenzyl)-2-oxoimidazolidine-1-carboxamido)-2-(4-phosphonophenyl)acetamido)-7-fluoro-2-hydroxy-3,4-dihydro-2H-benzo[e][1,2]oxaborinine-8-carboxylic acid] was tested. Which IC50 [1] did it give?
Answer: < 10 µM

Question: And the MIC (P. aeruginosa ATCC 27853)?
Answer: 2 to 4 µg/mL (≈ 2.83 to 5.66 µM)
